{"source": "patent US20030104024A1", "about": "“Urea and nitrogen based compounds as feeding stimulants/aggregants and masking agents of unpalatable chemicals for subterranean termites” (priority 2000, published 2003)", "key": {"C. formosanus": {"system": "C. formosanus", "conditions": "baits containing the termiticide; cited from earlier work"}, "Formosan termite": {"system": "Formosan termite", "assay": "choice test of the colorant (feeding deterrence)", "assay_type": "in vivo, Coptotermes formosanus", "conditions": "neutral red at 1000 ppm in bait matrix", "experimental": "(§1) The basic formulation of the matrix was prepared the same day that the experiment was set up, as reported by Rojas et al. (U.S. patent application Ser. Nos. 09/294,499 and 09/625,940, ibid). The colorant used was neutral red (Product number 72210, Fluka Chemical Corp., Milwaukee, Wis.) at 1000 ppm."}, "[1]": {"system": "Formosan subterranean termites", "assay": "two choice feeding experiment: blank bait matrix vs. matrix with neutral red and urea", "assay_type": "in vivo, Coptotermes formosanus", "conditions": "urea 0-1280 ppm added to matrix with 1,000 ppm neutral red; groups of 300 termites; 30 d; FIG. 1", "experimental": "as §1\nUnder a laminar flow hood, the sterile cellulose was weighed using a Oahus portable plus scale (Fisher Scientific, Pittsburgh, Pa.) into a sterile 600 ml glass beaker. The colorant was weighed using a Mettler Toledo balance (PB303, Fisher Scientific, Pittsburgh, Pa.) and added to the pre-weighed cellulose. The cellulose with the colorant were homogenized using a sterile stainless steel spatula.\nThe sterile liquid mixture was measured into a 50 ml sterile screw cap conical tube (Product number 62.547.004 PP, Sarstedt, Inc., Newton, N.C.) and the urea was added at each of the following doses: 0, 10, 20, 40, 80, 160, 320, 640, and 1280 ppm; then it was added to the colored cellulose to a 7:3 ratio, (liquid-urea:colored-cellulose) and mixed to homogenize. […]\nOne treatment dish and one control dish were placed in the center of the top dish, taking care that the holes were facing each other and at least 1 cm apart. […] Matrix consumption was measured 30 d after by removing the left over bait matrix from the dishes and weighed it using a Sartorius balance (BP 211D, VWR Scientific, Atlanta, Ga.). […]"}}, "data": [{"smiles": "O=C(NC(=O)c1c(F)cccc1F)Nc1ccc(Cl)cc1", "note": "[diflubenzuron]", "values": [{"measurement": "suppression of large colonies", "setting": "C. formosanus", "result": "particularly effective"}]}, {"smiles": "O=C(NC(=O)c1c(F)cccc1F)Nc1cc(Cl)c(OC(F)(F)C(F)F)c(Cl)c1", "note": "[hexaflumuron]", "values": [{"measurement": "suppression of large colonies", "setting": "C. formosanus", "result": "particularly effective"}]}, {"smiles": "Cc1cc2nc3ccc(N(C)C)cc3nc2cc1N.Cl", "note": "[neutral red]", "values": [{"measurement": "feeding deterrence to the Formosan termite", "setting": "Formosan termite", "result": "moderately deterrent"}]}, {"smiles": "NC(N)=O", "note": "[urea]", "values": [{"measurement": "effect of urea on feeding deterrence induced by the colorant (consumption difference, control minus colored matrix)", "setting": "[1]", "result": "significantly affected the feeding deterrence induced by the colorant"}]}]}
